Patent US8008007B2, “S-adenosyl-L-methionine analogs with extended activated groups for transfer by methyltransferases” (RWTH Aachen, priority 2005, dated 2011)

Key:
Assay type in all cases: biochemical
M.SssI-Q142A = molecular target: T1, M.SssI-Q142A (Spiroplasma monobiae, UniProt P15840, Q142A); assay: DNA protection assay with M.SssI variant Q142A on phage lambda DNA; details: 1 μg phage lambda DNA, cofactor 300 μM, 37° C. for 4 h, then R.BstUI
T1 construct: made in house
Excerpt: (§1) Transfer kinetics of the activated ethyl (—CH2CH3), propyl (—CH2CH2CH3), prop-2-enyl (—CH2CH═CH2), prop-2-ynyl (—CH2C≡CH), but-2-ynyl (—CH2C≡CCH3), pent-2-ynyl (—CH2C≡CCH2CH3) and benzyl group (—CH2C6H5) from cofactors 3-9 by the DNA adenine-N6 methyltransferase M.TaqI and its variant V21 G, the DNA cytosine-C5 methyltransferase M.HhaI and its variant Q82A, the DNA cytosine-N4 methyltransferase M.BcnIB and the DNA cytosine-C5 methyltransferase M.SssI variant Q142A to phage lambda DNA (48502 base pairs) were investigated using a DNA protection assay. This assay makes use of the fact that DNA methyltransferase-catalyzed modifications of nucleobases within the recognition sequences of restriction endonucleases can protect the DNA against fragmentation by these enzymes. […] Unmodified DNA containing 5′-TCGA-3′ recognition sequences is readily fragmentated by R.TaqI. After DNA modification by M.TaqI in the presence of a cofactor with an activated group Z—R modified 5′-TCGA^Z—R-3′ sequences are formed and, as a result, R.TaqI is unable to fragment the modified DNA. Occurrence of fragmentation is then analyzed by agarose gel electrophoresis.
By varying the amounts of DNA methyltransferase, this assay is used to investigate the enzymatic activities of the different DNA methyltransferases with cofactors 3-9 and compare them to the enzymatic activities with the natural cofactor 1. […]
Two fold serial dilutions (20 μL) of M.SssI-Q142A (starting with 3300 ng, 73 pmol) in buffer (10 mM Tris hydrochloride, 50 mM sodium chloride, 1 mM dithiothreitol, pH 7.9), phage lambda DNA (1 μg, 31.3 fmol, 3113 5′-CG-3′ recognition sequences, […] recognition sequences, MBI Fermentas) and the natural cofactor 1 (300 μM) or cofactor analogs 5 and 7 (300 μM) were incubated at 37° C. for 4 h. […] Loading buffer (10 μL, 0.25% bromphenol blue, 30% glycerol) was added to each sample, and aliquots (15 μL) were analyzed for the degree of protection by agarose gel (1%) electrophoresis.

M.HhaI-Q82A = molecular target: T2, M.HhaI-Q82A (Haemophilus parahaemolyticus, UniProt P05102, Q82A); assay: DNA protection assay with M.HhaI variant Q82A on phage lambda DNA; details: 1.16 μg phage lambda DNA, cofactor 300 μM, 37° C. for 4 h, then R.Hin6I; pH 7.4 (pH 6.0 for cofactor 6)
T2 construct: made in house
T2 sequence (P05102 whole entry Q82A): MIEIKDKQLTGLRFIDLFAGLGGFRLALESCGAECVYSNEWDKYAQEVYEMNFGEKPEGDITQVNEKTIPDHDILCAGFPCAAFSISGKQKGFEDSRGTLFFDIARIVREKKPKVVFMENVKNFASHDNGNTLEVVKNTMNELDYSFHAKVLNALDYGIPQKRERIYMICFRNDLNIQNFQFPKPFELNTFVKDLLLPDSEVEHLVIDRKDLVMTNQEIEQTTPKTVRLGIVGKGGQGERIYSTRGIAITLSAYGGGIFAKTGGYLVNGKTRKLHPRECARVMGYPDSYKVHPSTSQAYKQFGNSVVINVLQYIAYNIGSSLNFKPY
Excerpt: as §1
(§2) By varying the amounts of DNA methyltransferase, this assay is used to investigate the enzymatic activities of the different DNA methyltransferases with cofactors 3-9 and compare them to the enzymatic activities with the natural cofactor 1. The minimal amount of DNA methyltransferase needed to fully protect 1 μg of phage lambda DNA against restriction endonuclease fragmentation under the given experimental conditions is defined as one enzyme unit (u).
(§3) Afterwards, the reactions were stopped by heating to 80° C. for 10 min. […] Parallel control experiments were performed with phage lambda DNA in the absence of M.HhaI and in the presence of M.HhaI (278 ng).
The DNA protection assay with the M.HhaI variant Q82A (see Example 2B) was performed as described for the wild type enzyme (Example 3B.1).

M.HhaI = molecular target: T3, M.HhaI (Haemophilus parahaemolyticus, UniProt P05102); assay: DNA protection assay with M.HhaI (wild-type) on phage lambda DNA; details: 1.16 μg phage lambda DNA, cofactor 300 μM, 37° C. for 4 h, then R.Hin6I; pH 7.4 (pH 6.0 for cofactor 6)
T3 construct: made in house
T3 sequence (P05102 whole entry): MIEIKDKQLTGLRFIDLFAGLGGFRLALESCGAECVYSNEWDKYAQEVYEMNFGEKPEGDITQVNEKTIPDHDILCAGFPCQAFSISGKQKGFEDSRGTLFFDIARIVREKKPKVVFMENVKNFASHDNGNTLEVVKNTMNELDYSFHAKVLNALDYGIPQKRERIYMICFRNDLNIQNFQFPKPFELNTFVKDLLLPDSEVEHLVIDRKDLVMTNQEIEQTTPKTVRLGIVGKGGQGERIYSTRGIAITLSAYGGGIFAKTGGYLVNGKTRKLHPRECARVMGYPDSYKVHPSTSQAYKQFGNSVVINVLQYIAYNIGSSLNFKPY
Excerpt: as §1, §2, §3

M.BcnIB [1] = assay: DNA protection assay with M.BcnIB (wild-type) on phage lambda DNA; details: 1.10 μg phage lambda DNA, cofactor 300 μM, 37° C. for 4 h, then R.BcnI; pH 7.4 (pH 6.0 for cofactor 6)
Excerpt: as §1, §2
Afterwards the reactions were stopped by heating to 80° C. for 10 min. A solution (10 μL) containing R.BcnI restriction endonuclease (12 u, MBI Fermentas), bovine serum albumin (0.1 mg/mL) and buffer (33 mM Tris acetate, 66 mM potassium acetate, 26.5 mM magnesium chloride, pH 7.9) was added to each dilution and incubation at 37° C. was continued for 1 h. […] Parallel control experiments were performed with phage lambda DNA in the absence of M.BcnIB and in the presence of M.BcnIB (144 ng).

M.BcnIB [2] = assay: Modification of cytosine-N4 in duplex oligodeoxynucleotide V.VI by M.BcnIB, nucleoside analysis by HPLC/ESI-MS; details: duplex V.VI 12.5 μM, cofactor 300 μM, enzyme 15 μM, 37° C. over night
Excerpt: Transfer of the activated ethyl (CH2CH3), propyl (CH2CH2CH3), prop-2-enyl (CH2CHCH2), prop-2-ynyl group (CH2CCH), but-2-ynyl (CH2CCCH3), pent-2-ynyl (CH2CCCH2CH3) or benzyl group (CH2C6H5) from cofactors 3-9 by the DNA adenine-N6 methyltransferase M.TaqI, the DNA cytosine-C5 methyltransferase M.HhaI variant Q82A or the DNA cytosine-N4 methyltransferase M.BcnIB to DNA was first investigated using short duplex oligodeoxynucleotides as substrates. After enzymatic transfer the duplex oligodeoxynucleotides were enzymatically fragmented and the resulting modified nucleosides were analyzed by reversed-phase HPLC coupled with ESI-MS.
The duplex oligodeoxynucleotide V.VI was produced by mixing equal molar amounts (2.5 nmol) of complementary single-stranded oligodeoxynucleotide V (5′-[…]-3′) (SEQ ID NO. 3) and VI (5′-[…]-3′) (SEQ ID NO. 4) in water, heating at 85° C. for 5 min and slow cooling to room temperature. […] M.BcnIB was denatured by heating to 80° C. for 10 min and incubated with proteinase K at 55° C. 1 h. Hydrolysis products were removed using gel filtration column (G-25 column, Amersham Biosciences).
The obtained solutions of duplex oligodeoxynucleotides were treated with buffer ( 1/10 volume, 100 mM Tris-HCl, 100 mM magnesium chloride, 10 mM zinc acetate, pH 7.5) containing Nuclease P1 (1500 u, Sigma) and calf intestine alkaline phosphatase (30 u, MBI Fermentas) and incubated at 37° C. for 4 h. Nucleosides were analyzed by reversed-phase HPLC (Discovery C18 150×2.1 mm, 5 μm, equipped with a Supelguard Discovery C18 20×2.1 mm, 5 μm, pre-column, Supelco, Germany) coupled with a mass spectrometric detector (HP 1100 series ESI-MS equipped with single quadruple). Compounds were eluted with methanol (0% for 6 min, followed by linear gradients to 56% in 15 min and to 80% in 1 min) in ammonium formate buffer (20 mM, pH 4.25 for cofactors 3, 4, 6 and pH 3.5 for cofactor 5) at a flow of 0.3 mL/min and detected at 280 nm. For on-line mass spectrometric detection post-column mobile phase modification (equal co-flow of 96% methanol, 4% formic acid and 1 mM sodium hydroxide) was used to enhance the detection efficiency of 2′-deoxycytidine and its derivatives. Mass spectra were recorded in 50-600 m/z range.

T1 sequence (P15840 whole entry Q142A): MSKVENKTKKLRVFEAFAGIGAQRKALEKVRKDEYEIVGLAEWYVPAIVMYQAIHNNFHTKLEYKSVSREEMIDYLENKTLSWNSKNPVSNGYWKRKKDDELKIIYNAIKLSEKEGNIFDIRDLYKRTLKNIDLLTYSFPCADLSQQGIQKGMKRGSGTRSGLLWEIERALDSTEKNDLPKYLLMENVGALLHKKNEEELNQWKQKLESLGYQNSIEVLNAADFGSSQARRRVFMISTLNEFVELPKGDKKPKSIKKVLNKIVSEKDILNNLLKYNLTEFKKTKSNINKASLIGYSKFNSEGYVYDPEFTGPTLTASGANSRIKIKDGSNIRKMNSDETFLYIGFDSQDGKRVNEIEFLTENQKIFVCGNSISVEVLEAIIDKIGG

Row | Compound | specific activity of M.SssI-Q142A with the cofactor (M.SssI-Q142A) | specific activity of M.HhaI-Q82A with the cofactor (M.HhaI-Q82A) | specific activity of M.HhaI with the cofactor (M.HhaI) | specific activity of M.BcnIB with the cofactor (M.BcnIB [1]) | cofactor function for M.BcnIB (transfer of group Z-R to cytosine-N4) (M.BcnIB [2])
1 | CC#CC[S+](CCC(N)C(=O)O)CC1OC(n2cnc3c(N)ncnc32)C(O)C1O (mixture of isomers) [Cofactor 7] | 0.6 u/μg | 58 u/μg | 29 u/μg | 28 u/μg | 
2 | CC[S+](CCC(N)C(=O)O)CC1OC(n2cnc3c(N)ncnc32)C(O)C1O (stereo not shown) [Cofactor 3] |  | 7 u/μg |  |  | functions as a cofactor
3 | CCC[S+](CCC(N)C(=O)O)CC1OC(n2cnc3c(N)ncnc32)C(O)C1O (stereo not shown) [Cofactor 4] |  | 0 u/μg | 0 u/μg |  | does not function as a cofactor
4 | C=CC[S+](CCC(N)C(=O)O)CC1OC(n2cnc3c(N)ncnc32)C(O)C1O (stereo not shown) [Cofactor 5] | 1.2 u/μg | 29 u/μg | 7 u/μg |  | functions as a cofactor
5 | C#CC[S+](CCC(N)C(=O)O)CC1OC(n2cnc3c(N)ncnc32)C(O)C1O (stereo not shown) [Cofactor 6] |  |  |  | 0 u/μg | does not function as a cofactor
6 | CCC#CC[S+](CCC(N)C(=O)O)CC1OC(n2cnc3c(N)ncnc32)C(O)C1O (stereo not shown) [Cofactor 8] |  |  |  | 14 u/μg | 
